Calls of active or inactive are those of the source.
How the values were obtained:
Cytochrome P450 2C9 = Cytochrome P450 2C9 (Homo sapiens, UniProt P11712); conditions: Potency
Cytochrome P450 3A4 = Cytochrome P450 3A4 (Homo sapiens, UniProt P08684); conditions: Potency;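 further: confirmatory qHTS run detecting inhibitors and substrates of CYP3A4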
Insulin-degrading enzyme = molecular target: T1, Insulin-degrading enzyme (Homo sapiens, UniProt P14735); assay: Dose Response: Fluorescence polarization-based cell-based high throughput dose response assay for inhibitors of insulin-degrading enzyme (IDE). [Related pubchem assays: 434962 (Primary screen (IDE inhibitors in singlicate)), 449730 (Counterscreen (Cytotoxicity in triplicate)), 435028 (Confirmation (IDE inhibitors in triplicate)), 434984 (Summary …; format: functional
T1 sequence (P14735 whole entry): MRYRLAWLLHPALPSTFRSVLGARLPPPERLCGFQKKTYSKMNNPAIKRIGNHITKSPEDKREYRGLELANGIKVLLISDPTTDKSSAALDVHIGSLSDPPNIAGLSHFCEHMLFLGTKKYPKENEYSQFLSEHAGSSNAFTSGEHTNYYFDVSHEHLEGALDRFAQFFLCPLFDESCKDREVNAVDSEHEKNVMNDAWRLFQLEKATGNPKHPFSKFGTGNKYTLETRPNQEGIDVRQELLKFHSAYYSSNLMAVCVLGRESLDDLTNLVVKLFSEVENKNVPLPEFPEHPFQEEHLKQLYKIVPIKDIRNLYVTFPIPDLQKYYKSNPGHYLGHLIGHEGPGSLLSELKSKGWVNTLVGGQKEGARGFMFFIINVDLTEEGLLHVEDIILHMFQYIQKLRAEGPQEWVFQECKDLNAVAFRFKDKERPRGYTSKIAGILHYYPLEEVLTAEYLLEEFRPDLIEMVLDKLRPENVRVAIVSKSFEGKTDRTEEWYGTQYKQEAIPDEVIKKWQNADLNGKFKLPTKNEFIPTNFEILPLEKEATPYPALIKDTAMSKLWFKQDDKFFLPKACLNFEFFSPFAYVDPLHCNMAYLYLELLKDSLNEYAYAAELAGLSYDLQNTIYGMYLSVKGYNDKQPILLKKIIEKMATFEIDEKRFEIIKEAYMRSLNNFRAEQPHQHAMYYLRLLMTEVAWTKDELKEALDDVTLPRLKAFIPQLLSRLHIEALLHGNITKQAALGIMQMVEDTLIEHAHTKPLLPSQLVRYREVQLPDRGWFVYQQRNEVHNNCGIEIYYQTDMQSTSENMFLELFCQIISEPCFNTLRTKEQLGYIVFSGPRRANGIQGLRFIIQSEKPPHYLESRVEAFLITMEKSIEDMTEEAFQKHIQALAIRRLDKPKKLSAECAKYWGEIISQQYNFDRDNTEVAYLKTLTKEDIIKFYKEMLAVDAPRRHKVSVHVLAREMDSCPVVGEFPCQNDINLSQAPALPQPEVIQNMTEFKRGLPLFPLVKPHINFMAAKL

[1] = Counterscreen for IDE inhibitors: Luminescence-based cell-based high throughput dose response assay to identify compounds that are cytotoxic to HEK cells. [Related pubchem assays: 434962 (Primary screen (IDE inhibitors in singlicate)), 449730 (Counterscreen (Cytotoxicity in triplicate)), 435028 (Confirmation (IDE inhibitors in triplicate)) …; format: functional; conditions: HEK293
[2] = Luminescence Cell-Based Dose Response HTS to Identify Inhibitors of 5'UTR Stem-Loop Driven Prion Protein mRNA Translation in H4 Neuroglioblastoma Cells. [Related pubchem assays: 1827 (Project Summary), 1813 (Primary HTS)]; format: functional
Streptococcus = assay: GAS UMAA2166 growth inhibition – luminescence, BacTiterGlo, counter-screen for streptokinase expression inhibitor project, dose response (AID 1915); format: functional, organism-based;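 further: potency for reduction of bacterial viability or growth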
[3] = alpha-synuclein stem-loop luciferase translation blockers – H4 neuroglioma cells, luminescence, confirmation (AID 1988); format: functional, cell-based
[4] = molecular target: T2, Mannose-6-phosphate isomerase (Homo sapiens, UniProt P34949); assay: MPI inhibition at elevated mannose 6-phosphate – biochemical, fluorescence intensity, high mannose 6-phosphate, primary screen (AID 1220)
T2 sequence (P34949 whole entry): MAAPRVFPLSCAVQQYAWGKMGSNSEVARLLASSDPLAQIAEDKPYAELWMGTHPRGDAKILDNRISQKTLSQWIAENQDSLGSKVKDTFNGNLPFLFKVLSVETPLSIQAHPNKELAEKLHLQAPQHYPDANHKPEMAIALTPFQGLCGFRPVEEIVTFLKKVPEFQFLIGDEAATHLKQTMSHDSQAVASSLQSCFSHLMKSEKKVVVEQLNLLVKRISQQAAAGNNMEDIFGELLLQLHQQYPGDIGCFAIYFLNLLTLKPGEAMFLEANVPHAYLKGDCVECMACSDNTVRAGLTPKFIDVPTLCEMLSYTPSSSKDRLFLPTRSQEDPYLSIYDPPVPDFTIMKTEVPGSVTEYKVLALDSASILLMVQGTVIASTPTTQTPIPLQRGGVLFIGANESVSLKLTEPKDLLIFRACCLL

[5] = molecular target: T3, Replicative DNA helicase DnaB (Mycobacterium tuberculosis, UniProt P9WMR3); assay: DnaB intein splicing inhibitors, dose response, biochemical, cell-free fluorescence (AID 449749); format: functional
T3 sequence (P9WMR3 whole entry): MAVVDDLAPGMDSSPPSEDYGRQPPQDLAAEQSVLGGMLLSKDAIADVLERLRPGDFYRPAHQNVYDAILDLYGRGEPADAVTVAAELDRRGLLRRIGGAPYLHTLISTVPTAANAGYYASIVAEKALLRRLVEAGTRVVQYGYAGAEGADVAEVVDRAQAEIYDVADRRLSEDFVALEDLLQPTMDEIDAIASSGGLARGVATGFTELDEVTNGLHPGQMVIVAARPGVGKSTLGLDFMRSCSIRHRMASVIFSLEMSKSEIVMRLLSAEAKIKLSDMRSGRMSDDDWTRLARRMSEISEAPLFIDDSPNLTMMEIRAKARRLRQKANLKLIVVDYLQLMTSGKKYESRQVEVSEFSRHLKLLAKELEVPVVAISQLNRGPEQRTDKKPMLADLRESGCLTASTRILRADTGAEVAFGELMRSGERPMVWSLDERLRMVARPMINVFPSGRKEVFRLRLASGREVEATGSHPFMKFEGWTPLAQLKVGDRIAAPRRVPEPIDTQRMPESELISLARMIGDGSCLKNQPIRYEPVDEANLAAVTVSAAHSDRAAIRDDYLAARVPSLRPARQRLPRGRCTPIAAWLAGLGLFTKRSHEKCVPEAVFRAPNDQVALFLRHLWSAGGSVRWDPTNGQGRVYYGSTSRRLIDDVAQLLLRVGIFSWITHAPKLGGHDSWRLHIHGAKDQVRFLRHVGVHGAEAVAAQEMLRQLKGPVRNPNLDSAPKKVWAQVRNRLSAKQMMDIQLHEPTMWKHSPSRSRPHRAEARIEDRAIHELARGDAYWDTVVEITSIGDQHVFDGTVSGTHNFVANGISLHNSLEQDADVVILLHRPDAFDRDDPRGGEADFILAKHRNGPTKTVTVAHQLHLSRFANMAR

INS1 = assay: INS-1E survival protection against cytokine death – cell-based, luminescence, retest, dose response (AID 449756); format: functional; conditions: Rattus norvegicus;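 further: cell death triggered by IL-1 beta plus TNF-alpha plus IFN-gamma mixture; protective hits raise ATP signal compared with cytokine alone wells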
[6] = fluconazole-exposed Candida albicans growth modulators – fluorescence, retest, confirmation (AID 2467); format: functional, cell-based
BJ = assay: growth inhibition of engineered Ras-driven BJ cells – cell-based, alamar blue fluorescence, cherrypicked samples, dose response (AID 2631); format: functional; conditions: Homo sapiens;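 further: confirmatory dose-response assay in RAS-dependent BJ fibroblasts engineered with TERT, LT and ST, with cytotoxicity read by fluorescence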
[7] = Luminescence-based counterscreen assay for KLF5 inhibitors: dose response cell-based high throughput screening assay to identify cytotoxic compounds using the IEC-6 intestinal epithelial cell line. [Related pubchem assays: 1700 (Primary screen.), 1834 (Confirmation screen.), 1858 (Summary AID.), 1905 (Counterscreen.)]; format: functional
Protein RecA = molecular target: T4, Protein RecA (Mycobacterium tuberculosis, UniProt P9WHJ3); assay: Fluorescence Cell-Free Homogeneous Dose Retest to Identify Inhibitors of RecA-Intein Splicing Activity. [Related pubchem assays (depositor defined):AID2097, AID2223, AID489010, AID492950]; format: functional
T4 sequence (P9WHJ3 whole entry): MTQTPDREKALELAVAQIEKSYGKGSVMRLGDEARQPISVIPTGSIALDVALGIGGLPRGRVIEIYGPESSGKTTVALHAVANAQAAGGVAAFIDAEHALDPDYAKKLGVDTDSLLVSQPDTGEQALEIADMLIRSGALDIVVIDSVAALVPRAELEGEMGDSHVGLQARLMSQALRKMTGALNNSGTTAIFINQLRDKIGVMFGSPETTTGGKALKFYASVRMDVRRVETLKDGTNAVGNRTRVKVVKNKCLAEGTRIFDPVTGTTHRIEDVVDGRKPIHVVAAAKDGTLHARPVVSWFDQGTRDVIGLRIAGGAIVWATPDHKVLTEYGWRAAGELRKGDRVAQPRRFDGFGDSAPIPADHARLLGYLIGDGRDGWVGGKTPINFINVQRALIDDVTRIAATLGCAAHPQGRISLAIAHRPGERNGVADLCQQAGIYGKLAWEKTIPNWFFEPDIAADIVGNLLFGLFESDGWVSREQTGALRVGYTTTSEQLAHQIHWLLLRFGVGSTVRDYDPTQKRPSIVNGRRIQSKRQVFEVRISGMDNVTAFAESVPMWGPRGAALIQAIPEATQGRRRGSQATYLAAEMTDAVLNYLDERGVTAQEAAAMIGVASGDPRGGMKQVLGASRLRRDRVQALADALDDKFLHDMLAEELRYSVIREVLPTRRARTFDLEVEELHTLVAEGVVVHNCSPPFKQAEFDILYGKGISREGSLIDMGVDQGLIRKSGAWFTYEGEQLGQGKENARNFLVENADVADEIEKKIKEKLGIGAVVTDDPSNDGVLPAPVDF

[8] = NIH-3T3 fibroblast cytotoxicity, dose response, cytotoxicity control, cell-based, fluorescence, Alamar Blue, secondary assay (AID 2327); format: functional;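 further: NIH-3T3 mouse fibroblasts cultured with fluconazole at 8 µg/mL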
[9] = viability of PTEN-deleted HCT116 cells – cell-based, HCT116 PTEN knockout, dose response (AID 1047); format: functional;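 further: HCT116 colon tumor cells with PTEN knocked out; cells exposed to compound for 60 hours before readout; potency for loss of cell viability measured by luminescence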
[10] = viability of HCT116 lacking mutant beta-catenin – cell-based, human colon tumor, dose response (AID 1045); format: functional;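 further: HCT116 colon tumor cells with beta catenin knocked out; cells exposed to compound for 60 hours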
[11] = test system: Streptococcus sp. 'group A'; assay: Streptococcus pyogenes SK(-)GAS viability under kanamycin – luminescence, BacTiterGlo, confirmation, counter-screen for streptokinase expression inhibitor project, dose response (AID 1900); format: functional, organism-based
Streptokinase A = molecular target: T5, Streptokinase A (Streptococcus pyogenes serotype M1, UniProt P10520); assay: viability-normalized secreted streptokinase activity reduction – plasminogen activation absorbance, OD405, dose response (AID 1914); format: functional, Streptococcus pyogenes M1 GAS;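 further: secreted streptokinase activity via plasminogen activation per viability signal from cell pellet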
T5 sequence (P10520 whole entry): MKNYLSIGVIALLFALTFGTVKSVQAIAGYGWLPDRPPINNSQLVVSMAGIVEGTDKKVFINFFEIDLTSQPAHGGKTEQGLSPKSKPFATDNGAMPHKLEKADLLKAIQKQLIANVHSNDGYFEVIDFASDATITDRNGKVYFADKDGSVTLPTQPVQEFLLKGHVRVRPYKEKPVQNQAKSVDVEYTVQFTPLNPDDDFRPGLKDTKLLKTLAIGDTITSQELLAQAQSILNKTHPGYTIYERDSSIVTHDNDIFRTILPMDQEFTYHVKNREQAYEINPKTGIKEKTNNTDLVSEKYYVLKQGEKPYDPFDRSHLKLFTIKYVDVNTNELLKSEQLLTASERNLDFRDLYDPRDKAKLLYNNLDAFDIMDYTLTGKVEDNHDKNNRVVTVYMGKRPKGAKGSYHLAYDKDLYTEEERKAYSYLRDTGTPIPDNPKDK

Sequence of Cytochrome P450 2C9 (P11712 whole entry): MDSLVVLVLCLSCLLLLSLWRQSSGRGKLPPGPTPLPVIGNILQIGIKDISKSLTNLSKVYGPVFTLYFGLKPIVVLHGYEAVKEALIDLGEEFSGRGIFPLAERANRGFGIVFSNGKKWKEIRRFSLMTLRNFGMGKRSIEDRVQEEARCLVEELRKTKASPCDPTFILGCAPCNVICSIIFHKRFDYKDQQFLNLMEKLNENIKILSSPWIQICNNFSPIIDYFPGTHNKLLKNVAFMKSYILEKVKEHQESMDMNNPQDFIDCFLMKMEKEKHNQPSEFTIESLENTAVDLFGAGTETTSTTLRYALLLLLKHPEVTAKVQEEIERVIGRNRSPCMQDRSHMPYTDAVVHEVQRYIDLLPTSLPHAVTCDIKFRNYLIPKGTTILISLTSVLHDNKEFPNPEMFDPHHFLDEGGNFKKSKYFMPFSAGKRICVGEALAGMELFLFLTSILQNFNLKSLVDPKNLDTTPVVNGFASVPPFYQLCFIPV
Sequence of Cytochrome P450 3A4 (P08684 whole entry): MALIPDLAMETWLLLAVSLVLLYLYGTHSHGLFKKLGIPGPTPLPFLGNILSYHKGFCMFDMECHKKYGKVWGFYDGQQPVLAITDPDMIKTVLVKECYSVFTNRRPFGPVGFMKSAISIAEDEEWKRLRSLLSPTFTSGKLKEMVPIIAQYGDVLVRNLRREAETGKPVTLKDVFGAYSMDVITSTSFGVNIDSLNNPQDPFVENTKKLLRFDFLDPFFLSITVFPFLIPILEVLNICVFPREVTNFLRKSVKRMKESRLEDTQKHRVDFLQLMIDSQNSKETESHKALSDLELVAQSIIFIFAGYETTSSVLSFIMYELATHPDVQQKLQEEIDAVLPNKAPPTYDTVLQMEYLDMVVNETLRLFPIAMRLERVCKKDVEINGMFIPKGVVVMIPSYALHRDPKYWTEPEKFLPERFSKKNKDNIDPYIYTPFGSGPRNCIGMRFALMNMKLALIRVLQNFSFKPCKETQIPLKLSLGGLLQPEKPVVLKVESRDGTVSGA

Structure (SMILES): N[C@@H](Cc1cc(O)c(O)cc1O)C(=O)O
- AC50 (Cytochrome P450 2C9): 39.8 µM (inconclusive)
- AC50 (Cytochrome P450 3A4): 15.8 µM (inconclusive)

Structure (SMILES): Cc1ccc(NC(=O)CSc2nnc(CN3CCOCC3)n2C)cc1C
- IC50 (Insulin-degrading enzyme): > 55.9 µM (not active)
- IC50 [1]: > 55.7 µM (not active)

Structure (SMILES): C/N=C1\C(=O)c2ccccc2C(O)=C1N(C(C)=O)c1ccc(Br)cc1
- EC50 [2]: 11.4 µM (active)
- EC50 (Streptococcus): > 150 µM (not active)
- EC50 [3]: 8.7 µM (active)
- IC50 [4]: > 50 µM (not active)
- AC50 [5]: 11.3 µM (active)
- AC50 (INS1): 0.548 µM (active)
- EC50 [6]: 0.242 µM (active)
- EC50 (BJ): 2.38 µM (active)
- IC50 [7]: 5.7 µM (active)
- EC50 (Protein RecA): 0.795 µM (active)
- EC50 [8]: 3.59 µM (inconclusive)
- EC50 [9]: 0.688 µM (active)
- EC50 [10]: 0.594 µM (active)
- EC50 [11]: 6.44 µM (active)
- EC50 (Streptokinase A): 23.9 µM (active)
